Measurements taken from patent US8440718B2, “Modulation of inflammation related to columnar epithelia” (The Brigham and Women's Hospital, Inc., priority 1991, dated 2013).

Test system: T84 intestinal epithelial cells
Test: fMLP-induced PMN migration after LXA4 exposure of T84 epithelial monolayers
Type: cell-based, human
Method: Lipoxins Synthetic LXA4, LXB4, and 11-trans-LXA4 were obtained from Cascade Biochem Ltd. (Berkshire, United Kingdom). Concentrations were determined from extinction coefficients as described in Sheppard K-A., et al. (1992). Biochimica et Biophysica Acta 1133: 223-234. All eicosanoid stock solutions were stored at −70° C. in […] (American Scientific Products). Eicosanoids were diluted in modified HBSS to a concentration of 1 μM prior to all experiments. PMN or T84 monolayers were exposed to lipoxins at indicated concentrations and allowed to incubate at 37° C. for the indicated period of time. Vehicle controls consisted of dilutions of the solvent (ethanol) equivalent to the highest concentration of lipoxin used in any given experiment (0.01%). […]
Migration was quantitated by assaying for the PMN azurophilic granule marker myeloperoxidase (MPO) as described previously (Parkos C. A., et al. (1991). J. Clin. Invest 88: 1605-1612). Following each migration assay, non-adherent PMN were extensively washed from the surface of the monolayer and PMN cell equivalents (PMN CE), estimated from a standard curve, were assessed as the number of PMN's associated with the monolayer, the number which had completely traversed the monolayer (ie. across the monolayer into the reservoir bath), as well as the total number of transmigrating PMN (the sum of monolayer and reservoir-associated PMN). […]

For `CCCCC[C@H](O)/C=C/C=C\C=C\C=C\[C@@H](O)[C@@H](O)CCCC(=O)O` (relative stereo) [LXA4, (5S, 6R, 15S)-trihydroxy-7,9,13-trans-11-cis-eicosatetraenoic acid], the “total number of transmigrating PMN” value (T84 monolayers incubated with 10 nM LXA4 15 min 37°C, LXA4 not removed, untreated PMN, 1 μM fMLP) was 15.7±1.8 ×10^4 PMN CE/ml and the “total number of transmigrating PMN” value (T84 monolayers incubated with 10 nM LXA4 15 min, LXA4 removed by washing thrice with HBSS before PMN) was 14.3±1.1 ×10^4 PMN CE/ml.
